The values below come from patent US8053627B2, “Methods for treating demyelination disorders” (University of Chicago, priority 2005, dated 2011).

Assay [1] deals with corpus callosum of double transgenic mice treated with cuprizone. Put plainly: Cuprizone-induced demyelination/remyelination in GFAP/tTA; TRE/IFN-γ double transgenic mice (DOX− expresses IFN-γ). Format: in vivo. The protocol:
The effects of IFN-γ on demyelination were evaluated in a cuprizone animal model using transgenic mice that allow for temporally regulated delivery of IFN-γ using the tetracycline controllable system (Lin, et al. (2004) J. Neurosci. 24: 10074-10083). The transgenic mice were generated by mating line 110 GFAP/tTA mice on the C57BL/6 background with line 184 TRE/IFN-γ on the C57BL/6 background to produce GFAP/tTA; TRE/IFN-γ double transgenic mice (Lin, et al. (2004) J. Neurosci. 24: 10074-10083). Transcriptional activation of the TRE/IFN-γ transgene by tTA was repressed in the control (DOX+) mice by adding 0.05 mg/ml doxycycline to the drinking water which was provided ad libitum from the day of conception. The DOX+ double transgenic mice were GFAP/tTA; TRE/IFN-γ double transgenic animals fed cuprizone chow and never released from the doxycycline solution. DOX− double transgenic mice were GFAP/tTA; TRE/IFN-γ double transgenic animals fed cuprizone chow and released from doxycycline to induce expression of IFN-γ.
Demyelination was induced in 6-week-old DOX+ and DOX− male mice by feeding the mice a diet of milled mouse chow containing 0.2% cuprizone (Sigma-Aldrich, St. Louis, […].) for up to 6 weeks. Subsequently, both groups of mice were returned to a normal diet for up to 3 weeks to allow remyelination to occur. All animal procedures were conducted in complete compliance with the NIH Guide for the Care and Use of Laboratory Animals and were approved by the Institutional Animal Care and Use Committee of The University of Chicago.
The expression of IFN-γ in these animals was examined by Enzyme-Linked Immunosorbent Assay (ELISA) analysis as follows. Spinal cord and forebrains were removed, rinsed in ice cold PBS, and immediately homogenized in five volumes of PBS with complete protease cocktail (Roche, Indianapolis, Ind.) using a motorized homogenizer. After incubation on ice for 5 min the extracts were cleared by centrifugation at 14000 rpm for 10 min. The protein content of each extract was determined by the DC protein assay (Bio-Rad, Hercules, Calif.). ELISA assays were performed using Mouse IFN-γ Quantikine ELISA kit (R&D system, Minneapolis, Minn.) and MBP antibodies (1:1000; Sternberger Monoclonals) according to the manufacture's instructions.
Real time PCR was used to determine the effect of IFN-yon the expression of MHC-1. RNA was isolated from the corpus callosum (Jurevics, et al., 2002) using Trizol reagent (Invitrogen, Carlsbad, Calif.) and treated with DNAseI (Invitrogen, Carlsbad, Calif.) to eliminate genomic DNA. Reverse transcription was performed using Superscript First Strand Synthesis System for RT-PCR kit (Invitrogen, Carlsbad, Calif.). Real-time PCR was performed with iQ supermix (Bio-Rad, Hercules Calif.) on a Bio-Rad iQ real-time PCR detection system (Bio-Rad, Hercules Calif.). The primers and probes (Integrated DNA Technologies Inc., Coralville, Iowa) for real-time PCR were as follows:
The effect of INF-γ on the population of oligodendrocytes was evaluated by immunohistochemical analysis of oligodendrocytes using an anti-CC1 antibody (APC7, 1:50; EMD Biosciences, Inc., La Jolla, Calif.) Immunohistochemistry was perfomed on brain sections obtained from mice that were first anesthetized mice and perfused through the left cardiac ventricle with 4% paraformaldehyde in 0.1M PBS. The brains were removed, postfixed with paraformaldehyde, cryopreserved in 30% sucrose, embedded in OCT and frozen on dry ice. Frozen sections were cut in a cryostat at a thickness of 10 μm. […]

In assay [2] the test system is EAE demyelinating lesions. The experiment in a line: EAE, CNS delivery of INF-γ at the recovery stage (doxycycline withdrawn at PID7). Format: in vivo, mice. From the text:
Double transgenic mice that allow for temporally regulated delivery of INF-γ to the CNS (Lin et al., J Neurosci 24:10074-10083 (2004)) were used to assess the role of INF-γ in the pathogenesis of EAE. GFAP/tTA; TRE/IFN-γ double transgenic mice, as described in Example 1 were used to determine the effect of INF-γ on the demyelination caused by EAE. All mice were fed doxycycline from the day of conception to repress the expression of INF-γ, and were immunized with myelin oligodendrocyte protein (MOG35-55) to induce EAE. AT day 7 postimmunization (PID7), doxycycline was withdrawn from the experimental group (PID7 DOX−).
The level of INF-γ was determined in the control (DOX+) and the PID7 DOX− mice using an ELISA immunoassay as described in Example 1, and the severity of the disease was assessed as a function of a clinical score. Clinical severity scores were recorded daily according to a 0-5 point scale, where 0=healthy, 1=flaccid tail, 2=ataxia and/or paresis of hind limbs, 3=paralysis of hind limbs and/or paresis of forelimbs, 4=tetraparalysis, and 5=moribund or dead.
The spinal cord from DOX+ and DOX− animals with EAE was immunostained for MBP, and the remyelination of axons was evaluated. The number of oligodendrocytes was determined in the spine from DOX+ and DOX− mice as the number of CC1 positive cells. Axonal damage was evaluted by immunostaining of non-phosphorylated neurofilament-H. Antibodies to non-phosphorylated neurofilament-H were SM132 diluted to 1:1000 and obtained from Sternberger Monoclonals.
INF-γ is known to induce MHC antigens and activate macrophages and T lymphocytes. The inflammatory effect of INF-γ was studied in the CNS during remyelination by determining the infiltration of T cells and macrophages, and measuring the expression of MHC-1, TNF-a, IL-2, IL-12 and IL-17. Immunohistochemistry was performed in tissues from the DOX+ and DOX− mice with EAE as described in Example 4. Experimental procedures were followed as described in the examples above.

Where [3] appears, read: DOX− vs DOX+, spinal cord PID50.

As for “IFN-γ: pleotropic cytokine secreted by activated T lymphocytes and natural killer cells; delivered to the CNS by transgene or added as recombinant protein”, the “CC1 positive oligodendrocytes within the corpus callosum” value in assay [1] (DOX− mice, 8 weeks) was 78±12.7 /0.04 mm2. In addition, the “NG2 positive OPCs in the corpus callosum” value in assay [1] (DOX− mice, week 4 of cuprizone treatment) is reported as 46±4.24 /0.04 mm^2. Besides, the “NG2 positive OPCs in the corpus callosum” value in assay [1] (DOX− mice, week 6) is 31.5±0.71 /0.04 mm^2. Further, in assay [1] (DOX− mice, week 6 and week 8), the “expression of myelin genes MBP, PLP and CGT” value is reported as “significantly depressed”. For the same substance, in assay [1] (DOX− mice, week 8), the “remyelinated axons (EM)” value was 26.9%±7%. Further, in assay [1] (demyelination phase), the “effect on the initial pathological processes induced by cuprizone exposure” value was “does not have a significant effect”. Besides, the “expression of MHC-I in the corpus callosum (real-time PCR)” value in assay [1] (during remyelination) is reported as “significant increase”. The “number of CC1 positive oligodendrocytes” value in assay [2] (DOX− animals, PID50) is on record as “significantly decreased”. The “mice that developed hind limb paralysis” value in assay [2] (DOX− mice, PID17) was 24 of 30. Further, the “mean maximum clinical score” value in assay [2] (DOX− mice, PID17, 0-5 scale) is 2.69±0.69. Besides, in assay [2] (DOX− mice, PID50), the clinical score is given as roughly 2 and the “mice continuing to suffer from hind limb paralysis” value was 12/24. For the same substance, the “axonal damage (non-phosphorylated neurofilament-H immunostaining)” value in assay [2] (DOX− vs DOX+) is on record as “not affected”. In assay [2] (DOX− vs DOX+ mice), the “level of MBP in the lumbar spinal cord (immunostaining)” value was “notably reduced”. Also, in assay [2] (setting [3]), the “expression of IL-17 (real time PCR)” value is listed as “decrease”; the “expression of MHC-1, TNF-a, LL2 and IL-12 (real time PCR)” value was “increased”; the “expression of iNOs and IL-23 (real time PCR)” value is listed as “did not alter”. The “number of infiltrating T cells and macrophages in the lumbar spinal cord (CD3, CD11b)” value in assay [2] (mouse, in vivo) is “did not increase significantly”.
